Test results reported in article PMC11403423 (iScience, 2024).

Columns and labels:
[1] = system: #1-LTL+ and #2-LTL+ PToCs; assay: Nephrotoxicity testing, LDH release; type: cell-based, human; details: for Effect on cisplatin-induced LDH release: cimetidine 10 mM, cisplatin 100 μM
[2] = system: MRPs; assay: Transcellular transport assay of OAT1/3 substrates with MK571 in #1-LTL+ PToC; details: 10 μM MK571
[3] = system: MRPs; assay: Fluorescein uptake and transport with MK571 in #1-LTL+ PToC; type: cell-based, human
[4] = biological target: T1, OAT1 (Homo sapiens, UniProt Q4U2R8); assay: Transcellular transport assay of OAT1 substrates; details: 10 μM substrate; #1-LTL+ PToC
T1 sequence (Q4U2R8 1-563): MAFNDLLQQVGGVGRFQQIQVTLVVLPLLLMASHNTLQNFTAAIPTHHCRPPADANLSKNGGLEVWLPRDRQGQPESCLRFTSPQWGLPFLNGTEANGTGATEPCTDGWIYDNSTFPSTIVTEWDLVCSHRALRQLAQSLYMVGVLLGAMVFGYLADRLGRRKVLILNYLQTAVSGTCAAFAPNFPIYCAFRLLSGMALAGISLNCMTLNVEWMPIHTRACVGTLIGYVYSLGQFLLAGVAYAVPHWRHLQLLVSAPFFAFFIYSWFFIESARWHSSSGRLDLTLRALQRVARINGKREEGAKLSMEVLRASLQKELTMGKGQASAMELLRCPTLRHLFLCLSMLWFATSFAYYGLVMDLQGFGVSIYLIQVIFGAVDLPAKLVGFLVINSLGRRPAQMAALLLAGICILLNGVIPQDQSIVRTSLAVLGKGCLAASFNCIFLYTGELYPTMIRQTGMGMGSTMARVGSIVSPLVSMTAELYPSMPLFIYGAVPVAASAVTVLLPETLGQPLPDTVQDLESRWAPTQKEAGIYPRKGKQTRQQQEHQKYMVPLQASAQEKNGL

[5] = system: #1-LTL+ PToC; assay: LIVE/DEAD cell viability assay; type: cell-based, human; details: cimetidine with cisplatin
[6] = system: OAT1/3; assay: Fluorescein uptake assay; type: cell-based, human; details: 2 μM fluorescein, 30 min
[7] = system: OAT1/3; assay: Transported fluorescein amount; type: in vitro ADME, human; details: plate reader; 30 min
[8] = system: OCT2 and MATE1; assay: Transcellular transport assay of metformin in PToC, LC/MS
[9] = biological target: T2, OAT3 (Homo sapiens, UniProt Q8TCC7); assay: Transcellular transport assay of OAT3 substrate
T2 sequence (Q8TCC7 1-542): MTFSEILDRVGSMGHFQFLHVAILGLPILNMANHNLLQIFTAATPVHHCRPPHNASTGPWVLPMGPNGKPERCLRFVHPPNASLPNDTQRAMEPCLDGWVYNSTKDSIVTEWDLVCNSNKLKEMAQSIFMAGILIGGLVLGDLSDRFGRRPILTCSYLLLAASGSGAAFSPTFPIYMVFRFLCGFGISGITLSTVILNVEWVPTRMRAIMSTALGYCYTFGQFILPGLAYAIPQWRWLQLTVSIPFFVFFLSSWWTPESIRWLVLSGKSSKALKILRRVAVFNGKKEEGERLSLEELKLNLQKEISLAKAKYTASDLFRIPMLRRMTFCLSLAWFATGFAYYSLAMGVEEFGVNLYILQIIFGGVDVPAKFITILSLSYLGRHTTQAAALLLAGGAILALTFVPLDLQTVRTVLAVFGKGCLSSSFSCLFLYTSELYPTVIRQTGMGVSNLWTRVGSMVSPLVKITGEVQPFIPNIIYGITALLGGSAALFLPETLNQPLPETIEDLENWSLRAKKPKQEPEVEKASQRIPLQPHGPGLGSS

[10] = biological target: P-gp (Homo sapiens, UniProt P08183); details: #2-LTL+ PToC
Chain of P-gp (P08183 whole entry): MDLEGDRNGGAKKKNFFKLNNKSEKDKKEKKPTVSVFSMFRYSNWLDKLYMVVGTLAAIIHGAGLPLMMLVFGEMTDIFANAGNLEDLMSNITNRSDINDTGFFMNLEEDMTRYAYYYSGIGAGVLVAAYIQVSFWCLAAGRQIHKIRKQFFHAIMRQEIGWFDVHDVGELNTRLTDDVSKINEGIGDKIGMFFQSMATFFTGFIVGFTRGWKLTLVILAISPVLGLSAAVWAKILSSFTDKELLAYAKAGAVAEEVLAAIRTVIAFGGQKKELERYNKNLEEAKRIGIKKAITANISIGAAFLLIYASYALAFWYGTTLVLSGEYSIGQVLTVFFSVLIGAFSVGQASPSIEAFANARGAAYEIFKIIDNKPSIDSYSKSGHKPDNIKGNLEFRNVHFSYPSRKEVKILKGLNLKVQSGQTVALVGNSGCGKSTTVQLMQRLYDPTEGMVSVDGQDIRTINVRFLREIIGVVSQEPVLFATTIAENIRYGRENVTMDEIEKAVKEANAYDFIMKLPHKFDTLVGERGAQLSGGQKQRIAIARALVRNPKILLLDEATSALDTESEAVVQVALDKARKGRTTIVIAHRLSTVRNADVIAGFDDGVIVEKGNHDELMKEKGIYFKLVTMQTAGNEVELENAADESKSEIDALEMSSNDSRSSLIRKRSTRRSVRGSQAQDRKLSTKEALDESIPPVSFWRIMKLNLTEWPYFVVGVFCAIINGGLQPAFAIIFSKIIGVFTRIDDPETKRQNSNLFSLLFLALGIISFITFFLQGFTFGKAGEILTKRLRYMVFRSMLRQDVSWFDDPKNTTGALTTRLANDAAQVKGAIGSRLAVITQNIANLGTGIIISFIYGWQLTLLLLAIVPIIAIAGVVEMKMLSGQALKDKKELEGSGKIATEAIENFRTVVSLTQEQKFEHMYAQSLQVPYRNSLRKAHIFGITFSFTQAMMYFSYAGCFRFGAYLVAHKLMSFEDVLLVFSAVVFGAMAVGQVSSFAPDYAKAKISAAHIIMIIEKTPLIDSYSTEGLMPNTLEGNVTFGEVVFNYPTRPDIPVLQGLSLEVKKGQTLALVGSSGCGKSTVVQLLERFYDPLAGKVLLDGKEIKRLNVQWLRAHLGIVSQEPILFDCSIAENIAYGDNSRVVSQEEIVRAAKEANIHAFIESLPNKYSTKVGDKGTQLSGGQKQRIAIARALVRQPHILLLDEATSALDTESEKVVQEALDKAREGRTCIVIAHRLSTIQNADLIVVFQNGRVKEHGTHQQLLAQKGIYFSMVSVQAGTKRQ

COc1cccc2c1cc([N+](=O)[O-])c1c(C(=O)O)cc3c(c12)OCO3 [AA, Aristolochic acid I]
Normalized LDH release in #1-LTL+ compared to #2-LTL+ ([1]; 50 μM, 24 h): markedly higher
Normalized LDH release compared to control group without aristolochic acid ([1]; 50 μM, basal, 24 h, #1-LTL+ and #2-LTL+ PToCs): significantly higher

CN(C)C(=O)CCSC(SCCC(=O)O)c1cccc(/C=C/c2ccc3ccc(Cl)cc3n2)c1 (stereo not drawn) [MK571]
Effect on OAT1 excretion of PAH [2]: significant impairment
Effect on OAT1 excretion of adefovir [2]: significant impairment
Effect on OAT3 transport of rosuvastatin [2]: no substantial effect
Fluorescein transcellular transport [3]: reduction
Intracellular fluorescein accumulation (fluorescence intensity) [3]: notable increase

Nc1ncnc2c1ncn2CCOCP(=O)(O)O [adefovir]
Basal to apical (b → a) transport (Papp) in #1-LTL+ versus other PToC models [4]: notably higher

CN/C(=N/CCSCc1nc[nH]c1C)NC#N [cimetidine]
Effect on cisplatin-induced cell death (LIVE/DEAD) [5]: reduction in cell death
Effect on cisplatin-induced LDH release ([1]; 24 h, #1-LTL+): significant reduction
Effect on cisplatin-induced LDH release ([1]; 24 h, #2-LTL+): less pronounced
Effect on cisplatin-induced LDH release ([1]; 48 h, #1-LTL+ PToC): no difference among all conditions
Effect on cisplatin-induced LDH release ([1]; 48 h, #2-LTL+ PToC): notable reduction

O=C1OC2(c3ccc(O)cc3Oc3cc(O)ccc32)c2ccccc21 [fluorescein]
Fluorescein uptake of #2-LTL+ PToC relative to #1-LTL+ PToC [6]: approximately 60%
Fluorescein uptake compared to RPTEC ([6]; #1-LTL+ and #2-LTL+ PToC, absence of probenecid): significantly higher fluorescein uptake
Transcellular transport of fluorescein in #2-LTL+ PToC relative to #1-LTL+ PToC [7]: 10%

CN(C)C(=N)N=C(N)N [metformin]
Difference in ER between #1-LTL+ and #2-LTL+ PToCs [8]: no significant differences
Transcellular basal to apical (b → a) transport rate, comparison of PToCs ([8]; #1-LTL+ PToC versus #2-LTL+ and RPTEC): highest transport rates

CCCN(CCC)S(=O)(=O)c1ccc(C(=O)O)cc1 [probenecid]
Impact on rosuvastatin transport ([9]; probenecid 100 μM, #1-LTL+ and #2-LTL+): minimal impact

C=C[C@H]1C[N@@]2CC[C@H]1C[C@@H]2[C@@H](O)c1ccnc2ccc(OC)cc12 [quinidine]
Basal to apical (b → a) transport rate compared with RPTEC [10]: less basal to apical (b → a) transport rate

CC(C)c1nc(N(C)S(C)(=O)=O)nc(-c2ccc(F)cc2)c1/C=C/[C@@H](O)C[C@@H](O)CC(=O)O [rosuvastatin]
Basal to apical (b → a) transport (Papp) in #1-LTL+ versus other PToC models ([9]; 10 μM substrate, #1-LTL+ PToC): notably higher
